Reference: US7462716B2, “Statin derivatives” (Nicox S.A., priority 2003, dated 2008)
Read-outs that look alike come from different tables or passages of the source. Marks after values point to notes of the source that are not given here. Blank lines part the entries; values can stand above or below the compound they belong to.

Experiments:
[1] = system: isolated rabbit thoracic aorta preparations; assay: Vascular tone: relaxation of noradrenaline-precontracted isolated aortic rings; conditions: Oryctolagus cuniculus; rabbit thoracic aorta rings contracted with noradrenaline 1 μM, functional endothelium; ± sem; read-out: IC50 (concentration giving 50% reversal of NA contraction)
Description: The ability of statin nitroderivatives to induce vasorelaxation in comparison to native statins, was tested in vitro in isolated rabbit thoracic aorta preparations (Wanstall J. C. et al., Br. J. Pharmacol., 134:463-472, 2001). Male New Zealand rabbits were anaesthetized with thiopental-Na (50 mg/kg, iv), sacrificed by exsanguinations and then the thorax was opened and the aorta dissected. Single ring preparations (4 mm in length) of thoracic aorta were set up in physiological salt solution (PSS) at 37° C. in small organ chambers (5 ml). The composition of PSS was (mM): NaCl 130, NaHCO3 14.9, KH2PO4 1.2, MgSO4 1.2, HEPES 10, CaCl2, ascorbic acid […] and glucose 1.1 (95% O2/5% CO2; pH 7.4). Each ring was mounted under 2 g passive tension in 5 ml organ bath. Isometric tension was recorded with a Grass transducer (Grass FT03) attached to a BIOPAC MP150 System. Preparations were allowed to equilibrate for 1 h, then contracted submaximally with noradrenaline (NA, 1 μM) and, when the contraction was stable, acetylcholine (ACh, 10 μM) was added. A relaxant response to ACh indicated the presence of a functional endothelium. When a stable precontraction was reached, a cumulative concentration-response curve to either of the vasorelaxant agents was obtained in the presence of a functional endothelium. Time intervals between different concentrations were based on the time needed to reach a full response. Moreover, the effect of the soluble guanylyl cyclase inhibitor ODQ (1-H-(1,2,4)-oxadiazol(4,3-a)quinoxalin-1-one) on the dilator responses elicited by the compounds was examined preincubating the aortic rings with ODQ (10 μM) for 20 min. Responses to vasorelaxing agents were measured from the plateau of NA contraction. The IC50 (concentration giving 50% reversal of NA contraction) was interpolated from the plots of relaxant-response vs log molar concentration of tested compound.
During the experimental period, the plateau obtained with NA was stable without significant spontaneous loss of contraction in the aortic rings.
As shown in the following Table 1, the nitroderivatives of the invention were able to induce relaxation in a concentration-dependent manner. Furthermore, in experiments performed in presence of ODQ (10 μM), the vasorelaxant responses to all the tested drugs were inhibited.
IC50 is the concentration which inhibits 50% of the response. Effects of Nitrostatin Derivatives on Inflammatory Pathways In Vitro

[2] = system: iNOS; assay: Western blot of iNOS protein in LPS-stimulated RAW264.7 cells; format: cell-based
Description: (§1) The experiments were performed using RAW264.7 monocyte macrophage cell line. […] At the end of the incubation, the cells were harvested in lysis buffer and the protein content was measured. Western Blot of inducible iNOS and COX2 proteins (representatives of an ongoing inflammatory process) was performed. The obtained results reported in Table 2 are expressed as % reduction of optical density of each treatment vs. LPS-treated samples.

[3] = system: COX2; assay: Western blot of COX2 protein in LPS-stimulated RAW264.7 cells; format: cell-based
Description: as §1

[4] = system: murine hindlimb ischemia; assay: Murine hindlimb ischemia model (capillary density, clinical outcome); format: in vivo, CD1 male mice
Description: Angiogenesis is a primary response to local tissue hypoxia and is likely involved in the restoration of blood flow in ischemic diseases such as acute coronary syndromes and occlusive peripheral vascular disease. […] After 3 days, mice were anaesthetized and left hindlimb ischemia was induced by electro-coagulation of the upper part of femoral artery. Treatment was continued for the following 2 weeks after surgery. Systolic blood pressure was measured by tail cuff technique at 7 and 14 days. The clinical outcome at 14 days was determined by counting the number of necrotic or lost nails in the ischemic foot as well as the number of auto-amputation events. At 14 days from ischemia induction, hindlimbs of anaesthetized mice were perfusion-fixed, both adductors were coded and histologically processed. Capillary and arteriolar densities (ncap/mm^2 and nart/mm^2) were determined.

[5] = system: leukocyte adhesion; assay: Ex vivo leukocyte adhesion to thrombin-stimulated arterial segments of dosed ApoE knockout mice; format: in vivo; conditions: ApoE K/O mice, pravastatin 40 mg/kg po or equimolar dose daily for 5 days
Description: The interaction between leukocytes and the vascular endothelium is a crucial inflammatory step in the atherogenic process.
Leukocytes were isolated from spleen, centrifuged, RBCs lysed with water. Arterial segments prepared—aortic & thoracic regions opened longitudinally and pinned out luminal side up. Radiolabelled leukocytes (^51Cr-leukocytes) are incubated with thrombin-stimulated (10 UmL−1 for 10 min.) segments for 30 min. Segments are washed with medium and adhesion measured by gamma counter.

[6] = system: U46619-induced pulmonary thromboembolism; assay: Protection from U46619-induced pulmonary thromboembolism; format: in vivo, CD-1 mice; conditions: mice, U46619 0.2 mg/kg iv
Description: 1 (equimolar doses) or vehicle. 1-3 hrs later the animals were injected into a tail vein with U46619 (0.2 mg/kg), a stable TxA2 analog. As previously described (Momi et al., Eur. J. Pharmacol. 397:177-185, 2000), this dose of the agonist caused 80 to 90% mortality within 3 min. in the control group. In each experimental session at least six animals per treatment group were tested; control groups were run at the beginning and at the end of every experimental session. Protection against agonist-induced thromboembolism was expressed as (1-Tdrug/Tsaline)×100, were Tdrug is the mortality rate in drug-treated mice, and Tsaline is the number of non surviving control animals which received […] only.
The results were expressed as percentage of protection from U46619-induced pulmonary thromboembolism as compared to the control group.

[7] = system: human platelets; assay: U46619-induced platelet aggregation in vitro; format: cell-based
Description: Platelets are prominent components of the thrombi.
Compounds were incubated at 37° C. for 2 min before adding U46619, an aggregating agent, TxA2 analog. Aggregation was followed for 5 min and the maximal amplitude (cm) was measured. DMSO (0.05%) was used as vehicle. Compounds were tested at concentrations ranging from 50 to 200 μM.

[8] = system: Tissue factor (TF); assay: Tissue factor expression in LPS-stimulated blood mononuclear cells; format: cell-based; conditions: 50 μM; human MNC, LPS 1 μg/ml, 3 h; mean ± SEM
Description: Tissue factor (TF) is a major regulator of homeostasis and thrombosis. […] MNC were obtained from fresh blood by density gradient (Ficoll-Hypaque) centrifugation and resuspended in serum-free RPMI medium at the concentration of 2−3×10^6/ml. […] After incubation for 3 h at 37° C., TF expression in MNC was assessed by 1) functional assay (Semeraro et al., 1983. Immunology; 50: 529-35) on intact cells; 2) immunological assay (Imubind, Instrumentation Laboratory, Milan) on Triton X-100 cell extracts; 3) RT-PCR (Rossiello et al. Thromb Haemost 2000; 84:453-59).

[9] = 100 μM, RAW264.7, LPS 1 μg/ml 8 h
[10] = mice, 14 days after ischemia, in chow pravastatin 40 mg/kg or nitroderivative 48 mg/kg
[11] = 10 μM, RAW264.7, LPS 1 μg/ml 16 h, negative = increase vs LPS

Compound: CC[C@H](C)C(=O)O[C@H]1C[C@H](O)C=C2C=C[C@H](C)[C@H](CCC(O)C[C@H](O)CC(=O)OCCCCO[N+](=O)[O-])[C@H]21 (relative stereo) [Compound of EX. 1, [1S-[1α(βS*,δS*),2α,6α,8β-(R*),8aα]]-1,2,6,7,8,8a-hexahydro-β,δ,6-trihydroxy-2-methyl-8-(2-methyl-1-oxobutoxy)-1-naphthaleneheptanoic acid 4-(nitrooxy)butyl ester]
IC50 [1]: 2.4 ± 0.6 µM
iNOS (% reduction vs LPS) [2, 9]: 55.2 ± 11.8%
COX2 (% reduction vs LPS) [3, 9]: 74.9 ± 4.4%
clinical outcome in mice with hindlimb ischemia ([4]; 14 days, necrotic or lost nails, auto-amputation events): ameliorates clinical outcome
N capillaries/mm^2 in contralateral adductor muscle [4, 10]: 660 ± 40 N capillaries/mm^2
N capillaries/mm^2 in ischemic adductor muscle [4, 10]: 1116 ± 53^§§**^++ N capillaries/mm^2
Leukocyte adhesion (%) (thoracic aorta) [5]: 9.3 ± 3 %
Antithrombotic activity (%) 1-h before challenge ([6]; 12 mg/kg ip): 30* %
Antithrombotic activity (%) 3-h before challenge ([6]; 12 mg/kg ip): 40* %
Antithrombotic activity (%) 1-h before challenge ([6]; 24 mg/kg ip): 40*+ %
Antithrombotic activity (%) 3-h before challenge ([6]; 24 mg/kg ip): 55*+ %
IC50 ([7]; Platelet, human gel filtered platelets, read-out: Platelet aggregation (GFP) IC50): 101 ± 10 µM
IC50 ([7]; human platelet rich plasma, read-out: Platelet aggregation (PRP) IC50): 74 ± 7 µM
TF in LPS-stimulated MNC: Activity [8]: 16 ± 4.9 AU/10^6 cells
TF in LPS-stimulated MNC: Antigen [8]: 0.65 ± 0.11 ng/mg protein

IC50 [1]: 13.4 ± 3.5 µM
Compound: CC(C)n1c(/C=C/[C@@H](O)C[C@@H](O)CC(=O)OCCCCO[N+](=O)[O-])c(-c2ccc(F)cc2)c2ccccc21 (relative stereo) [Compound of EX. 3, [R*,S*-(E)]-7-[3-(4-fluorophenyl)-1-(1-methylethyl)-1H-indol-2-yl]-3,5-dihydroxy-6-heptanoic acid 4-(nitrooxy)butyl ester]
iNOS (% reduction vs LPS) [2, 11]: 44.8 ± 11.9%
COX2 (% reduction vs LPS) [3, 11]: 53.9 ± 6.1%

IC50 [1]: 8.7 ± 3.3 µM
Compound: CC(C)n1c(/C=C/[C@@H](O)C[C@@H](O)CC(=O)OCc2ccc(CO[N+](=O)[O-])cc2)c(-c2ccc(F)cc2)c2ccccc21 (relative stereo) [Compound of EX. 4, [R*,S*-(E)]-7-[3-(4-fluorophenyl)-1-(1-methylethyl)-1H-indol-2-yl]-3,5-dihydroxy-6-heptanoic acid 4-(nitrooxymethyl)benzyl ester]
iNOS (% reduction vs LPS) [2, 11]: 22.4 ± 9.6%
COX2 (% reduction vs LPS) [3, 11]: 19.4 ± 6.5%

Compound: CC(C)c1c(C(=O)Nc2ccccc2)c(-c2ccccc2)c(-c2ccc(F)cc2)n1CC[C@@H](O)C[C@@H](O)CC(=O)O [Atorvastatin, atorvastatin, reference compound]
iNOS (% reduction vs LPS) [2, 11]: 20 ± 14%

Compound: CC(C)c1c(C(=O)Nc2ccccc2)c(-c2ccccc2)c(-c2ccc(F)cc2)n1CC[C@@H](O)C[C@@H](O)CC(=O)OCCCCO[N+](=O)[O-] [Compound of EX. 7, (βR,δR)-2(4-fluorophenyl)-β,δ-dihydroxy-5-(1-methylethyl)-3-phenyl-4-[(phenylamino)carbon-yl]-1H-pyrrole-1-heptanoic acid 4-(nitrooxy)butyl ester]
iNOS (% reduction vs LPS) [2, 11]: 45 ± 9%

IC50 [1]: > 30 µM
Compound: CC(C)n1c(/C=C/C(O)CC(O)CC(=O)O)c(-c2ccc(F)cc2)c2ccccc21 (stereo not shown) [Fluvastatin, fluvastatin, reference compound]
iNOS (% reduction vs LPS) [2, 11]: −14.8 ± 5.9%
COX2 (% reduction vs LPS) [3, 11]: −2.8 ± 3.7%

Compound: CC[C@H](C)C(=O)O[C@H]1C[C@H](O)C=C2C=C[C@H](C)[C@H](CC[C@@H](O)C[C@@H](O)CC(=O)O)[C@H]21 [Pravastatin, pravastatin, reference compound]
IC50 [1]: > 30 µM
iNOS (% reduction vs LPS) [2, 9]: 4.7 ± 3.6%
COX2 (% reduction vs LPS) [3, 9]: 26.9 ± 7.9%
N capillaries/mm^2 in contralateral adductor muscle [4, 10]: 736 ± 40 N capillaries/mm^2
Leukocyte adhesion (%) (thoracic aorta) [5]: 23.0 ± 6%
Antithrombotic activity (%) 1-h before challenge ([6]; 10 mg/kg ip): 15%
Antithrombotic activity (%) 3-h before challenge ([6]; 10 mg/kg ip): 10%
Antithrombotic activity (%) 1-h before challenge ([6]; 20 mg/kg ip): 25%
Antithrombotic activity (%) 3-h before challenge ([6]; 20 mg/kg ip): 20%
TF in LPS-stimulated MNC: Activity [8]: 189 ± 37.6 AU/10^6 cells
TF in LPS-stimulated MNC: Antigen [8]: 4.4 ± 1.3 ng/mg protein
